Patent US9522928B2, “Mannosylated compounds useful for the prevention and the treatment of infectious diseases” (UNIVERSITE DE STRASBOURG, priority 2011, dated 2016)
“Also recorded” adds a separate entry of the source.

Key:
Type in all cases: cell-based
[1] = target: T1, DC-SIGN (Homo sapiens, UniProt Q9NNX6); assay: DC-SIGN internalization in DCs (flow cytometry, confocal microscopy); conditions: 100 μM
T1 construct: endogenous in cells; host or cells: human monocyte-derived dendritic cells (GM-CSF/IL-4 differentiated)
T1 sequence (Q9NNX6 1-404): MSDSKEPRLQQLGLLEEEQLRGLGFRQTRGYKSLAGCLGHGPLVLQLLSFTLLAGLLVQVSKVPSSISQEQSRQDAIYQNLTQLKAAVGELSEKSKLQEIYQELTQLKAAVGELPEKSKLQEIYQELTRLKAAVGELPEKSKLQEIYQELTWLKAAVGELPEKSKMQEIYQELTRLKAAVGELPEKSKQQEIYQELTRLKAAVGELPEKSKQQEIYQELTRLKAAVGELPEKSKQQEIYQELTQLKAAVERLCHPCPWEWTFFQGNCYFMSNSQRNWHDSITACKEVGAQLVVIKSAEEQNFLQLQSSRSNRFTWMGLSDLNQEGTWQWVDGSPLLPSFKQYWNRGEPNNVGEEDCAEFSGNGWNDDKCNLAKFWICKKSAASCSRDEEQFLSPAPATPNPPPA
Method: To visualize the effect on DC-SIGN, cells were either left untreated or exposed to TriMan (100 μM final) for 45 min at 37° C., fixed with 4% paraformaldehyde for 15 min at room temperature, washed, permeabilized with 0.1% Triton X-100 for 3 min at 20° C., washed and labeled with an anti-DC-SIGN primary monoclonal antibody clone 111H2 (Canard, et al., 2011), followed by a secondary FITC-labeled anti-mouse-IgG (Southern Biotech). Nuclei were labeled with DAPI. Slides were mounted and processed as above.
Moreover, expression of DC-SIGN was visualized with a fluorescently-labeled antibody by confocal fluorescence microscopy. In untreated cells, DC-SIGN was mostly located at the cell membrane, in agreement with previous reports (Engering, et al., 2002). Upon exposure to TriManC24, DC-SIGN was detected both at the cell membrane and within the cytoplasm. […] The effect of TriManC24 on DC-SIGN cellular localization was assessed by flow cytometry analyses of DCs, in the absence or presence of TriManC24.

[2] = tested on: HIV-1 (R5 strain); assay: HIV-1 cis-infection and replication in DCs (p24Gag ELISA); conditions: 10 and 100 μM, p24Gag in supernatant
Method: Human monocyte-derived dendritic cells (2×10^5; 300 μL) in RPMI 1640 medium containing 10% FBS were pre-treated with either anti-DC-SIGN antibodies (clone AZND1, Beckman-Coulter; 10 μg/mL) or compounds TriManC24 and TriManC24insat (10 and 100 μM) for 30 min at 37° C., before inoculation with HIV-1 (R5 strain; 100 ng of p24Gag). After 3 h, cells were pelleted and extensively washed to remove excess virus and compounds. On day 2, 4 and 7 after infection, cells were pelleted, an aliquot of the supernatant was removed and kept at −20° C., and half of the supernatant was replaced with fresh medium. Viral replication was monitored by measuring p24Gag levels in the culture supernatant by an enzyme-linked immunosorbent assay (ELISA, Innogenetics). […] As shown in the case of Dengue virus, the compounds of the invention may also interfere with HIV cis-infection. […] Discussion

[3] = tested on: HIV-1 X4; assay: HIV-1 X4 trans-infection of MAGI-CCR5 cells mediated by DCs
Method: (§1) ManC1, […] (comparative) and compounds of the invention (ManC24, ManC17, TriManC24, TriDiManC24, TriManinsatC24 and ManinsatC24) were serially diluted in water. Human DCs (1×10^5 in 200 μl ) were pre-treated with different concentrations of compounds, or mannan (Sigma) or culture medium alone, in RPMI 1640 medium containing 10% FBS for 45 min at 37° C., prior infection with HIV-1 (100 ng of p24Gag) for 3 h. Excess free virus and molecules were removed by three washes. DCs were then cocultured with MAGI -CCR5 cells (1×10^5) at 37° C. plated in a 48-well plate. After two days, viral infection of MAGI-CCR5 cells was quantitated following beta-galactosidase assays and enumerating blue cells by light microscopy.
(§2) The IC50 were determined by serial dilution of each compound. The trans-infection assays were repeated a minimum of three times, and the IC50 determined using KaleidaGraph.
To investigate the ability of the compounds of the invention to inhibit HIV-1 trans infection, we chose to infect human DCs in order to best mimic in vivo conditions. […] This procedure allows precise quantification of HIV-1 replication in reporter MAGI-CCR5 cells by detection of beta-galactosidase activity. […] Upon viral entry leading to viral Tat expression and activation of the LTR, these cells permit quantification of HIV trans-infection after two days.

[4] = target: T2, DC-SIGN expressed at the surface of DCs (Homo sapiens, UniProt Q9NNX6); assay: Competition with gp120-FITC binding to DCs, flow cytometry; conditions: 100 μM, 30 min pretreatment, competition not complete
T2 construct: endogenous in cells; host or cells: human monocyte-derived dendritic cells (GM-CSF/IL-4 differentiated)
T2 sequence (Q9NNX6 1-404): T1 sequence (Q9NNX6 1-404)
Method: Human DCs (1×10^5 in 100 μl) were aliquoted in a 96-well microtiter plate in RPMI 1640 medium without FBS. To assess the binding of HIV-1 glycoprotein 120, FITC conjugated recombinant gp120 HIV-1 IIIB (ImmunoDiagnostics Inc, Woburn, Mass. U.S.A.) was added to the cells (final concentration of 5 μg/ml) and incubated for 45 min at 37° C. For competition assays, cells were pretreated with either mannan (100 μg/ml final) or TriManC24 (100 μM) for 30 min at 37° C., followed by incubation with gp120-FITC for 45 min at 37° C. After washing with HBSS buffer (Lonza), expression of fluorescence intensity was analyzed on a FACSCalibur flow cytometer with the CellQuest Pro software
The ability of TriManC24 to inhibit the interactions of HIV-1 gp120 with DC-SIGN […] at the surface of DCs. Immature DCs were prepared by differentiation of human monocytes, in the presence of a cocktail of cytokines. The expression levels of DC-SIGN were controlled by flow cytometry. […] When cells were incubated with fluorescently-labeled gp120, a strong binding of gp120 to DCs was observed as compared with a lower interaction with monocytes (FIG. 1B).
A competition assays were performed by pre-incubating DCs with either TriManC24 or mannan, followed by the addition of gp120-FITC (FIG. 1C).

[5] = tested on: HIV-1 R5; assay: HIV-1 R5 trans-infection of MAGI-CCR5 cells mediated by DCs
Method: as §1, §2
To investigate the ability of the compounds of the invention to inhibit HIV-1 trans infection, we chose to infect human DCs in order to best mimic in vivo conditions. Human DCs were exposed to different compounds (namely, Mannan (control), ManC1 (comparative), ManC11 (comparative), ManC17, ManC24, TriManC24, TriDiManC24, ManinsatC24 and TriManinsatC24) for 45 min at 37° C., before inoculation with HIV-1 (strains R5 and X4) for 3 hours. After extensive washings to remove unbound virions and mannosides, DCs were then co-cultured with MAGI-CCR5 cells. This procedure allows precise quantification of HIV-1 replication in reporter MAGI-CCR5 cells by detection of beta-galactosidase activity. These cells express an integrated copy of the HIV long terminal repeat (LTR) fused to the beta-galactosidase reporter gene, and express the CD4 receptor and the CCR5 and CXCR4 co-receptors, required for entry of HIV-1 R5 and X4 respectively. Upon viral entry leading to viral Tat expression and activation of the LTR, these cells permit quantification of HIV trans-infection after two days.

CCCCCCCCCCCCCCCCCCCCCCCCC(=O)NC(COCCC(=O)NCCOCCOCCOCCOC1OC(CO)C(O)C(O)C1O)(COCCC(=O)NCCOCCOCCOCCOC1OC(CO)C(O)C(O)C1O)COCCC(=O)NCCOCCOCCOCCOC1OC(CO)C(O)C(O)C1O (stereo not drawn) [TriManC24]
DC-SIGN receptors internalized [1]: about 20%
inhibition of HIV-1 cis-infection / replication in DCs (in words) [2]: decreases the amount of HIV R5 replication; also recorded: inhibit
residual level of trans-infection [3]: 15%
inhibition of gp120 binding to DCs (in words) [4]: able to inhibit the binding of gp120-FITC to DCs
inhibition of gp120 binding to DCs (in words) ([4]; listed as TrimanC24): competed for the binding of soluble gp120 glycoprotein to DC-SIGN
residual level of trans-infection [5]: 20%
